≈ marks a conversion by molar mass, not a printed value.
Tests used:
Staphylococcus aureus [1] = experiment: Antibacterial activity against quinolone-resistant Staphylococcus aureus CCARM 3519 after 24 hrs by broth microdilution method; assay type: functional; conditions: CCARM 3519, 24 h
Staphylococcus aureus [2] = experiment: Antibacterial activity against quinolone-resistant Staphylococcus aureus CCARM 3505 after 24 hrs by broth microdilution method; assay type: functional; conditions: CCARM 3505, 24 h
Staphylococcus aureus [3] = experiment: Antibacterial activity against methicillin-resistant Staphylococcus aureus CCARM 3506 after 24 hrs by broth microdilution method; assay type: functional; conditions: CCARM 3506, 24 h
Staphylococcus aureus [4] = experiment: Antibacterial activity against methicillin-resistant Staphylococcus aureus CCARM 3167 after 24 hrs by broth microdilution method; assay type: functional; conditions: CCARM 3167, 24 h
Escherichia coli = experiment: Antibacterial activity against Escherichia coli CCARM 1356 after 24 hrs by broth microdilution method; assay type: functional; conditions: CCARM 1356, 24 h
Staphylococcus aureus [5] = experiment: Antibacterial activity against Staphylococcus aureus KCTC 503 after 24 hrs by broth microdilution method; assay type: functional; conditions: KCTC 503, 24 h
Staphylococcus aureus [6] = experiment: Antibacterial activity against Staphylococcus aureus KCTC 209 after 24 hrs by broth microdilution method; assay type: functional; conditions: KCTC 209, 24 h
Staphylococcus aureus [7] = experiment: Antibacterial activity against Staphylococcus aureus RN4220 after 24 hrs by broth microdilution method; assay type: functional; conditions: RN4220, 24 h
HeLa = experiment: Cytotoxicity against human HeLa cells after 48 hrs by MTT assay; assay type: cell-based

SMILES	MIC (Staphylococcus aureus [1])	MIC (Staphylococcus aureus [2])	MIC (Staphylococcus aureus [3])	MIC (Staphylococcus aureus [4])	MIC (Escherichia coli)	MIC (Staphylococcus aureus [5])	MIC (Staphylococcus aureus [6])	MIC (Staphylococcus aureus [7])	IC50 (HeLa)
O=C(O)[C@H](Cc1ccccc1)N1C(=O)/C(=C/c2cc3cc(OCc4ccccc4Br)ccc3nc2Cl)SC1=S	2 mg/L (≈ 3.13 µM)	2 mg/L (≈ 3.13 µM)	2 mg/L (≈ 3.13 µM)	2 mg/L (≈ 3.13 µM)	> 64 mg/L	8 mg/L (≈ 12.5 µM)	8 mg/L (≈ 12.5 µM)	4 mg/L (≈ 6.25 µM)	–
O=C(O)[C@H](Cc1ccccc1)N1C(=O)/C(=C/c2cc3cc(OCc4ccc(Cl)cc4)ccc3nc2Cl)SC1=S	2 mg/L (≈ 3.36 µM)	2 mg/L (≈ 3.36 µM)	2 mg/L (≈ 3.36 µM)	2 mg/L (≈ 3.36 µM)	> 64 mg/L	4 mg/L (≈ 6.72 µM)	8 mg/L (≈ 13.4 µM)	4 mg/L (≈ 6.72 µM)	–
O=C(O)[C@H](Cc1ccccc1)N1C(=O)/C(=C/c2cc3cc(OCc4ccccc4F)ccc3nc2Cl)SC1=S	2 mg/L (≈ 3.45 µM)	2 mg/L (≈ 3.45 µM)	2 mg/L (≈ 3.45 µM)	1 mg/L (≈ 1.73 µM)	> 64 mg/L	8 mg/L (≈ 13.8 µM)	64 mg/L (≈ 111 µM)	4 mg/L (≈ 6.91 µM)	–
O=C(O)[C@H](Cc1ccccc1)N1C(=O)/C(=C/c2cc3cc(OCc4cccc(F)c4)ccc3nc2Cl)SC1=S	2 mg/L (≈ 3.45 µM)	1 mg/L (≈ 1.73 µM)	1 mg/L (≈ 1.73 µM)	2 mg/L (≈ 3.45 µM)	> 64 mg/L	4 mg/L (≈ 6.91 µM)	64 mg/L (≈ 111 µM)	4 mg/L (≈ 6.91 µM)	–
O=C(O)[C@H](Cc1ccccc1)N1C(=O)/C(=C/c2cc3cc(OCc4ccc(F)cc4)ccc3nc2Cl)SC1=S	4 mg/L (≈ 6.91 µM)	2 mg/L (≈ 3.45 µM)	2 mg/L (≈ 3.45 µM)	2 mg/L (≈ 3.45 µM)	> 64 mg/L	4 mg/L (≈ 6.91 µM)	32 mg/L (≈ 55.3 µM)	4 mg/L (≈ 6.91 µM)	–
CCC(C)[C@@H](C(=O)O)N1C(=O)/C(=C/c2cc3cc(OCc4ccccc4Cl)ccc3nc2Cl)SC1=S (stereo partly drawn)	2 mg/L (≈ 3.56 µM)	2 mg/L (≈ 3.56 µM)	1 mg/L (≈ 1.78 µM)	2 mg/L (≈ 3.56 µM)	> 64 mg/L	8 mg/L (≈ 14.2 µM)	64 mg/L (≈ 114 µM)	4 mg/L (≈ 7.12 µM)	–
CCC(C)[C@@H](C(=O)O)N1C(=O)/C(=C/c2cc3cc(OCc4cccc(Cl)c4)ccc3nc2Cl)SC1=S (stereo partly drawn)	2 mg/L (≈ 3.56 µM)	1 mg/L (≈ 1.78 µM)	1 mg/L (≈ 1.78 µM)	2 mg/L (≈ 3.56 µM)	> 64 mg/L	4 mg/L (≈ 7.12 µM)	> 64 mg/L	2 mg/L (≈ 3.56 µM)	–
CCC(C)[C@@H](C(=O)O)N1C(=O)/C(=C/c2cc3cc(OCc4ccc(Cl)cc4)ccc3nc2Cl)SC1=S (stereo partly drawn)	2 mg/L (≈ 3.56 µM)	2 mg/L (≈ 3.56 µM)	1 mg/L (≈ 1.78 µM)	1 mg/L (≈ 1.78 µM)	> 64 mg/L	4 mg/L (≈ 7.12 µM)	8 mg/L (≈ 14.2 µM)	2 mg/L (≈ 3.56 µM)	–
CCC(C)[C@@H](C(=O)O)N1C(=O)/C(=C/c2cc3cc(OCc4ccccc4F)ccc3nc2Cl)SC1=S (stereo partly drawn)	2 mg/L (≈ 3.67 µM)	2 mg/L (≈ 3.67 µM)	1 mg/L (≈ 1.83 µM)	2 mg/L (≈ 3.67 µM)	> 64 mg/L	4 mg/L (≈ 7.34 µM)	32 mg/L (≈ 58.7 µM)	2 mg/L (≈ 3.67 µM)	–
CCC(C)[C@@H](C(=O)O)N1C(=O)/C(=C/c2cc3cc(OCc4cccc(F)c4)ccc3nc2Cl)SC1=S (stereo partly drawn)	2 mg/L (≈ 3.67 µM)	2 mg/L (≈ 3.67 µM)	1 mg/L (≈ 1.83 µM)	2 mg/L (≈ 3.67 µM)	> 64 mg/L	8 mg/L (≈ 14.7 µM)	32 mg/L (≈ 58.7 µM)	2 mg/L (≈ 3.67 µM)	–
CCC(C)[C@@H](C(=O)O)N1C(=O)/C(=C/c2cc3cc(OCc4ccc(F)cc4)ccc3nc2Cl)SC1=S (stereo partly drawn)	1 mg/L (≈ 1.83 µM)	2 mg/L (≈ 3.67 µM)	1 mg/L (≈ 1.83 µM)	2 mg/L (≈ 3.67 µM)	> 64 mg/L	4 mg/L (≈ 7.34 µM)	2 mg/L (≈ 3.67 µM)	1 mg/L (≈ 1.83 µM)	–
CCC(C)[C@@H](C(=O)O)N1C(=O)/C(=C/c2cc3cc(OCc4ccc(C)cc4)ccc3nc2Cl)SC1=S (stereo partly drawn)	2 mg/L (≈ 3.7 µM)	2 mg/L (≈ 3.7 µM)	2 mg/L (≈ 3.7 µM)	2 mg/L (≈ 3.7 µM)	> 64 mg/L	4 mg/L (≈ 7.39 µM)	4 mg/L (≈ 7.39 µM)	2 mg/L (≈ 3.7 µM)	9.09 mg/L (≈ 16.8 µM)
CC(C)C[C@@H](C(=O)O)N1C(=O)/C(=C/c2cc3cc(OCc4ccccc4Cl)ccc3nc2Cl)SC1=S	2 mg/L (≈ 3.56 µM)	1 mg/L (≈ 1.78 µM)	1 mg/L (≈ 1.78 µM)	1 mg/L (≈ 1.78 µM)	> 64 mg/L	8 mg/L (≈ 14.2 µM)	4 mg/L (≈ 7.12 µM)	1 mg/L (≈ 1.78 µM)	–
CC(C)C[C@@H](C(=O)O)N1C(=O)/C(=C/c2cc3cc(OCc4cccc(Cl)c4)ccc3nc2Cl)SC1=S	2 mg/L (≈ 3.56 µM)	2 mg/L (≈ 3.56 µM)	2 mg/L (≈ 3.56 µM)	1 mg/L (≈ 1.78 µM)	> 64 mg/L	64 mg/L (≈ 114 µM)	4 mg/L (≈ 7.12 µM)	2 mg/L (≈ 3.56 µM)	–
CC(C)C[C@@H](C(=O)O)N1C(=O)/C(=C/c2cc3cc(OCc4ccc(F)cc4)ccc3nc2Cl)SC1=S	1 mg/L (≈ 1.83 µM)	2 mg/L (≈ 3.67 µM)	2 mg/L (≈ 3.67 µM)	2 mg/L (≈ 3.67 µM)	> 64 mg/L	8 mg/L (≈ 14.7 µM)	8 mg/L (≈ 14.7 µM)	2 mg/L (≈ 3.67 µM)	–
Cc1ccc(COc2ccc3nc(Cl)c(/C=C4\SC(=S)N([C@@H](CC(C)C)C(=O)O)C4=O)cc3c2)cc1	1 mg/L (≈ 1.85 µM)	1 mg/L (≈ 1.85 µM)	2 mg/L (≈ 3.7 µM)	1 mg/L (≈ 1.85 µM)	> 64 mg/L	8 mg/L (≈ 14.8 µM)	8 mg/L (≈ 14.8 µM)	1 mg/L (≈ 1.85 µM)	8.84 mg/L (≈ 16.3 µM)
O=C(O)[C@H](Cc1ccccc1)N1C(=O)/C(=C/c2cc3cc(OCc4ccccc4Cl)ccc3nc2Cl)SC1=S	2 mg/L (≈ 3.36 µM)	2 mg/L (≈ 3.36 µM)	2 mg/L (≈ 3.36 µM)	2 mg/L (≈ 3.36 µM)	> 64 mg/L	8 mg/L (≈ 13.4 µM)	64 mg/L (≈ 107 µM)	4 mg/L (≈ 6.72 µM)	–
O=C(O)[C@H](Cc1ccccc1)N1C(=O)/C(=C/c2cc3cc(OCc4cccc(Cl)c4)ccc3nc2Cl)SC1=S	2 mg/L (≈ 3.36 µM)	2 mg/L (≈ 3.36 µM)	2 mg/L (≈ 3.36 µM)	2 mg/L (≈ 3.36 µM)	> 64 mg/L	8 mg/L (≈ 13.4 µM)	64 mg/L (≈ 107 µM)	2 mg/L (≈ 3.36 µM)	–
COc1c(N2CCNC(C)C2)c(F)cc2c(=O)c(C(=O)O)cn(C3CC3)c12 (stereo not drawn) [GATIFLOXACIN]	4 mg/L (≈ 10.7 µM)	8 mg/L (≈ 21.3 µM)	1 mg/L (≈ 2.66 µM)	2 mg/L (≈ 5.33 µM)	16 mg/L (≈ 42.6 µM)	4 mg/L (≈ 10.7 µM)	2 mg/L (≈ 5.33 µM)	0.25 mg/L (≈ 0.666 µM)	–
COc1c(N2C[C@@H]3CCCN[C@@H]3C2)c(F)cc2c(=O)c(C(=O)O)cn(C3CC3)c12 [MOXIFLOXACIN]	4 mg/L (≈ 9.96 µM)	–	–	–	> 64 mg/L	–	–	0.25 mg/L (≈ 0.623 µM)	–
CCn1cc(C(=O)O)c(=O)c2cc(F)c(N3CCNCC3)cc21 [NORFLOXACIN]	> 64 mg/L	> 64 mg/L	4 mg/L (≈ 12.5 µM)	8 mg/L (≈ 25.1 µM)	16 mg/L (≈ 50.1 µM)	2 mg/L (≈ 6.26 µM)	2 mg/L (≈ 6.26 µM)	2 mg/L (≈ 6.26 µM)	–
Cc1onc(-c2ccccc2)c1C(=O)N[C@@H]1C(=O)N2[C@@H]1SC(C)(C)[C@@H]2C(=O)O [OXACILLIN]	1 mg/L (≈ 2.49 µM)	1 mg/L (≈ 2.49 µM)	> 64 mg/L	> 64 mg/L	> 64 mg/L	1 mg/L (≈ 2.49 µM)	1 mg/L (≈ 2.49 µM)	1 mg/L (≈ 2.49 µM)	–

Reference: ChEMBL document CHEMBL2401670, “Synthesis and biological evaluation of rhodanine derivatives bearing a quinoline moiety as potent antimicrobial agents” (Bioorg Med Chem Lett, 2013)
